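Here, GI50 denotes the concentration required for 50% inhibition of growth. TGI is the concentration that stops growth completely.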
Assays:
Assay in all cases: growth of human tumour cells (NCI), 384-well format
[1] = test system: 786-0 renal
[2] = test system: A498 renal
[3] = test system: A549 NSCLC
[4] = test system: ACHN renal
[5] = test system: BT-549 breast
[6] = test system: CAKI-1 renal
[7] = test system: CCRF-CEM leukemia
[8] = test system: COLO 205 colon
[9] = test system: DU-145 prostate
[10] = test system: HCC-2998 colon
[11] = test system: HCT-116 colon
[12] = test system: HCT-15 colon
[13] = test system: HL-60(TB) leukemia
[14] = test system: HOP-62 NSCLC
[15] = test system: HOP-92 NSCLC
[16] = test system: HT29 colon
[17] = test system: IGROV1 ovarian
[18] = test system: K-562 leukemia
[19] = test system: KM12 colon
[20] = test system: LOX IMVI melanoma
[21] = test system: M14 melanoma
[22] = test system: MALME-3M melanoma
[23] = test system: MCF7 breast
[24] = test system: MDA-MB-231 breast
[25] = test system: MDA-MB-435 melanoma
[26] = test system: MDA-MB-468 breast
[27] = test system: MOLT-4 leukemia
[28] = test system: NCI-H226 lung
[29] = test system: NCI-H23 lung
[30] = test system: NCI-H322M lung
[31] = test system: NCI-H460 NSCLC
[32] = test system: NCI-H522 lung
[33] = test system: NCI/ADR-RES ovarian
[34] = test system: OVCAR-3 ovarian
[35] = test system: OVCAR-4 ovarian
[36] = test system: OVCAR-5 ovarian
[37] = test system: OVCAR-8 ovarian
[38] = test system: PC-3 prostate
[39] = test system: RPMI-8226 leukemia
[40] = test system: RXF 393 renal
[41] = test system: SF-268 CNS
[42] = test system: SF-295 CNS
[43] = test system: SF-539 CNS
[44] = test system: SK-MEL-2 melanoma
[45] = test system: SK-MEL-28 melanoma
[46] = test system: SK-MEL-5 melanoma
[47] = test system: SK-OV-3 ovarian
[48] = test system: SN12C renal
[49] = test system: SNB-19 CNS
[50] = test system: SR leukemia
[51] = test system: SW-620 colon
[52] = test system: T-47D breast
[53] = test system: TK-10 renal
[54] = test system: U251 glioblastoma
[55] = test system: UACC-257 melanoma
[56] = test system: UACC-62 melanoma
[57] = test system: UO-31 renal

Structure (SMILES): CN(C)CC[C@H](CSc1ccccc1)Nc1ccc(S(=O)(=O)NC(=O)c2ccc(N3CCN(Cc4ccccc4-c4ccc(Cl)cc4)CC3)cc2)cc1[N+](=O)[O-]
- GI50 [1]: 1.94 µM
- TGI [1]: 4.74 µM
- GI50 [2]: 1.42 µM
- TGI [2]: 2.98 µM
- GI50 [3]: 3.14 µM
- TGI [3]: 53.2 µM
- GI50 [4]: 5.2 µM
- TGI [4]: 62.8 µM
- GI50 [5]: 2.23 µM
- TGI [5]: 6.13 µM
- GI50 [6]: 1.83 µM
- TGI [6]: 3.73 µM
- GI50 [7]: 0.145 µM
- TGI [7]: 0.372 µM
- GI50 [8]: 1.68 µM
- TGI [8]: 3.12 µM
- GI50 [9]: 4.2 µM
- TGI [9]: > 100 µM
- GI50 [10]: 0.232 µM
- TGI [10]: 0.75 µM
- GI50 [11]: 1.95 µM
- TGI [11]: 4.07 µM
- GI50 [12]: 1.68 µM
- TGI [12]: 3.17 µM
- GI50 [13]: 0.0477 µM
- TGI [13]: 0.218 µM
- GI50 [14]: 3.18 µM
- TGI [14]: 25.4 µM
- GI50 [15]: 0.177 µM
- TGI [15]: 1.05 µM
- GI50 [16]: 2.9 µM
- TGI [16]: 13.3 µM
- GI50 [17]: 1.48 µM
- TGI [17]: 3.59 µM
- GI50 [18]: 2.17 µM
- TGI [18]: 5.21 µM
- GI50 [19]: 2.05 µM
- TGI [19]: 6.17 µM
- GI50 [20]: 2.36 µM
- TGI [20]: 4.73 µM
- GI50 [21]: 2.79 µM
- TGI [21]: 8.57 µM
- GI50 [22]: 3.15 µM
- TGI [22]: 11.2 µM
- GI50 [23]: 1.87 µM
- TGI [23]: 4.93 µM
- GI50 [24]: 1.04 µM
- TGI [24]: 2.39 µM
- GI50 [25]: 2.33 µM
- TGI [25]: 6.07 µM
- GI50 [26]: 1.33 µM
- TGI [26]: 3.42 µM
- GI50 [27]: 0.119 µM
- TGI [27]: 0.252 µM
- GI50 [28]: 1.66 µM
- TGI [28]: 3.86 µM
- GI50 [29]: 2.37 µM
- TGI [29]: 7.46 µM
- GI50 [30]: 2.34 µM
- TGI [30]: 5.7 µM
- GI50 [31]: 3.65 µM
- TGI [31]: 14.3 µM
- GI50 [32]: 4.36 µM
- TGI [32]: 60.7 µM
- GI50 [33]: > 100 µM
- TGI [33]: > 100 µM
- GI50 [34]: 1.63 µM
- TGI [34]: 3.37 µM
- GI50 [35]: 3 µM
- TGI [35]: 9.08 µM
- GI50 [36]: 2.01 µM
- TGI [36]: 4.19 µM
- GI50 [37]: 2.29 µM
- TGI [37]: 6.24 µM
- GI50 [38]: 1.78 µM
- TGI [38]: 3.48 µM
- GI50 [39]: 0.239 µM
- TGI [39]: 0.444 µM
- GI50 [40]: 0.258 µM
- TGI [40]: 1.4 µM
- GI50 [41]: 3.17 µM
- TGI [41]: > 100 µM
- GI50 [42]: 2.46 µM
- TGI [42]: 6.83 µM
- GI50 [43]: 5.46 µM
- TGI [43]: 100 µM
- GI50 [44]: 1.64 µM
- TGI [44]: 3.64 µM
- GI50 [45]: 2.77 µM
- TGI [45]: 6.76 µM
- GI50 [46]: 1.3 µM
- TGI [46]: 2.64 µM
- GI50 [47]: 2.31 µM
- TGI [47]: 6.3 µM
- GI50 [48]: 2.26 µM
- TGI [48]: 5.79 µM
- GI50 [49]: 3.11 µM
- TGI [49]: > 100 µM
- GI50 [50]: 0.223 µM
- TGI [50]: 1.48 µM
- GI50 [51]: 3.52 µM
- TGI [51]: 12.2 µM
- GI50 [52]: 2.41 µM
- TGI [52]: 9.13 µM
- GI50 [53]: 1.98 µM
- TGI [53]: 4.79 µM
- GI50 [54]: 2.56 µM
- TGI [54]: 7.35 µM
- GI50 [55]: 1.49 µM
- TGI [55]: 3.71 µM
- GI50 [56]: 3.02 µM
- TGI [56]: 10.5 µM
- GI50 [57]: 1.79 µM
- TGI [57]: 3.58 µM

Reference: PubChem BioAssay (NCI)
